CC(C)COc1ccc(B(O)O)cc1
Details | solubility (mole fraction)
in 3-pentanone, 294.65 K | 0.114
in 3-pentanone, 298.65 K | 0.128
in 3-pentanone, 303.75 K | 0.146
in 3-pentanone, 307.25 K | 0.172
in 3-pentanone, 309.35 K | 0.187
in 3-pentanone, 313.65 K | 0.205
in 3-pentanone, 317.65 K | 0.232
in 3-pentanone, 325.55 K | 0.265
in 3-pentanone, 331.35 K | 0.31
in 3-pentanone, 334.65 K | 0.335
in 3-pentanone, 339.65 K | 0.367
in 3-pentanone, 349.65 K | 0.411
in acetone, 294.45 K | 0.127
in acetone, 296.85 K | 0.132
in acetone, 299.75 K | 0.139
in acetone, 304.75 K | 0.149
in acetone, 309.45 K | 0.16
in acetone, 312.25 K | 0.171
in acetone, 318.75 K | 0.19
in acetone, 322.55 K | 0.204
in acetone, 325.35 K | 0.218
in chloroform, 296.25 K | 0.0212
in chloroform, 299.95 K | 0.0253
in chloroform, 303.65 K | 0.0304
in chloroform, 308.65 K | 0.0367
in chloroform, 309.65 K | 0.0415
in chloroform, 310.85 K | 0.0471
in chloroform, 312.65 K | 0.0555
in chloroform, 316.35 K | 0.0668
in chloroform, 319.65 K | 0.0785
in chloroform, 322.35 K | 0.0936
in chloroform, 328.75 K | 0.115
in chloroform, 334.25 K | 0.146
in chloroform, 338.65 K | 0.202
in chloroform, 338.75 K | 0.183
in chloroform, 343.15 K | 0.254
in chloroform, 346.65 K | 0.279
in chloroform, 352.65 K | 0.324
in chloroform, 353.85 K | 0.335
in dipropyl ether, 296.65 K | 0.0352
in dipropyl ether, 303.15 K | 0.0416
in dipropyl ether, 308.15 K | 0.0497
in dipropyl ether, 308.45 K | 0.0587
in dipropyl ether, 312.65 K | 0.0705
in dipropyl ether, 315.65 K | 0.082
in dipropyl ether, 320.15 K | 0.0995
in dipropyl ether, 325.55 K | 0.128
in dipropyl ether, 330.05 K | 0.165
in dipropyl ether, 333.15 K | 0.196
in dipropyl ether, 336.65 K | 0.229
in dipropyl ether, 339.45 K | 0.261
in dipropyl ether, 344.15 K | 0.314
in dipropyl ether, 348.65 K | 0.345
in methylcyclohexane, 318.55 K | 0.0096
in methylcyclohexane, 323.65 K | 0.0191
in methylcyclohexane, 328.45 K | 0.03
in methylcyclohexane, 334.75 K | 0.0514
in methylcyclohexane, 343.55 K | 0.118
in methylcyclohexane, 344.65 K | 0.204
in methylcyclohexane, 345.55 K | 0.266
in methylcyclohexane, 350.95 K | 0.322

CC(C)COc1cccc(B(O)O)c1
Details | solubility (mole fraction)
in 3-pentanone, 303.65 K | 0.191
in 3-pentanone, 307.15 K | 0.204
in 3-pentanone, 314.15 K | 0.233
in 3-pentanone, 318.75 K | 0.258
in 3-pentanone, 335.65 K | 0.289
in 3-pentanone, 339.15 K | 0.329
in 3-pentanone, 343.15 K | 0.354
in 3-pentanone, 348.15 K | 0.396
in 3-pentanone, 351.15 K | 0.443
in 3-pentanone, 353.65 K | 0.488
in chloroform, 297.15 K | 0.018
in chloroform, 302.65 K | 0.0229
in chloroform, 306.65 K | 0.0278
in chloroform, 310.25 K | 0.0327
in chloroform, 313.95 K | 0.0408
in chloroform, 318.35 K | 0.0507
in chloroform, 323.05 K | 0.067
in chloroform, 328.55 K | 0.0899
in chloroform, 331.75 K | 0.131
in chloroform, 333.25 K | 0.19
in dipropyl ether, 298.65 K | 0.103
in dipropyl ether, 302.95 K | 0.116
in dipropyl ether, 305.15 K | 0.126
in dipropyl ether, 308.45 K | 0.137
in dipropyl ether, 312.15 K | 0.155
in dipropyl ether, 314.65 K | 0.172
in dipropyl ether, 319.75 K | 0.198
in dipropyl ether, 323.45 K | 0.232
in dipropyl ether, 329.95 K | 0.275
in dipropyl ether, 333.95 K | 0.34
in methylcyclohexane, 305.95 K | 0.0033
in methylcyclohexane, 308.45 K | 0.0049
in methylcyclohexane, 309.95 K | 0.0065
in methylcyclohexane, 315.75 K | 0.0082
in methylcyclohexane, 318.65 K | 0.0147
in methylcyclohexane, 322.65 K | 0.0343
in methylcyclohexane, 325.25 K | 0.0556
in methylcyclohexane, 327.05 K | 0.0817
in methylcyclohexane, 329.65 K | 0.132
in methylcyclohexane, 331.75 K | 0.154
